9 molecules from ChEMBL document CHEMBL4680356, “Discovery of a novel 53BP1 inhibitor through AlphaScreen-based high-throughput screening” (Bioorg Med Chem, 2021) can be followed below.

Assay [1] concerns the target T1, TP53-binding protein 1 (Homo sapiens, UniProt Q12888). The assay is described as follows: Inhibition of recombinant human N-terminal His6-tagged 53BP1 TTD (1484 to1603 residues) expressed in Escherichia coli BL21 (DE3) cells using Biotin-H4K2Ome2 as substrate preincubated for 30 mins followed by substrate addition and measured after 30 mins by AlphaScreen assay.

Assay [2] has as its target T1, TP53-binding protein 1. The experiment in a line: Binding affinity to recombinant human N-terminal His6-tagged lysine dye- labeled 53BP1 TTD (1484 to1603 residues) expressed in Escherichia coli BL21 (DE3) cells incubated for 10 mins by MST assay.
The target of assay [3] is T1, TP53-binding protein 1. The assay is described as follows: Binding affinity to recombinant human N-terminal His6-tagged 53BP1 TTD (1484 to1603 residues) expressed in Escherichia coli BL21 (DE3) cells by SPR analysis. In general terms: Surface plasmon resonance follows binding to a sensor surface in real time, without labels.

For orientation: IC50 means the midpoint of a concentration-inhibition curve. The term Kd denotes the equilibrium constant for the complex coming apart.

T1 sequence (Q12888 whole entry, the tested form may be a part): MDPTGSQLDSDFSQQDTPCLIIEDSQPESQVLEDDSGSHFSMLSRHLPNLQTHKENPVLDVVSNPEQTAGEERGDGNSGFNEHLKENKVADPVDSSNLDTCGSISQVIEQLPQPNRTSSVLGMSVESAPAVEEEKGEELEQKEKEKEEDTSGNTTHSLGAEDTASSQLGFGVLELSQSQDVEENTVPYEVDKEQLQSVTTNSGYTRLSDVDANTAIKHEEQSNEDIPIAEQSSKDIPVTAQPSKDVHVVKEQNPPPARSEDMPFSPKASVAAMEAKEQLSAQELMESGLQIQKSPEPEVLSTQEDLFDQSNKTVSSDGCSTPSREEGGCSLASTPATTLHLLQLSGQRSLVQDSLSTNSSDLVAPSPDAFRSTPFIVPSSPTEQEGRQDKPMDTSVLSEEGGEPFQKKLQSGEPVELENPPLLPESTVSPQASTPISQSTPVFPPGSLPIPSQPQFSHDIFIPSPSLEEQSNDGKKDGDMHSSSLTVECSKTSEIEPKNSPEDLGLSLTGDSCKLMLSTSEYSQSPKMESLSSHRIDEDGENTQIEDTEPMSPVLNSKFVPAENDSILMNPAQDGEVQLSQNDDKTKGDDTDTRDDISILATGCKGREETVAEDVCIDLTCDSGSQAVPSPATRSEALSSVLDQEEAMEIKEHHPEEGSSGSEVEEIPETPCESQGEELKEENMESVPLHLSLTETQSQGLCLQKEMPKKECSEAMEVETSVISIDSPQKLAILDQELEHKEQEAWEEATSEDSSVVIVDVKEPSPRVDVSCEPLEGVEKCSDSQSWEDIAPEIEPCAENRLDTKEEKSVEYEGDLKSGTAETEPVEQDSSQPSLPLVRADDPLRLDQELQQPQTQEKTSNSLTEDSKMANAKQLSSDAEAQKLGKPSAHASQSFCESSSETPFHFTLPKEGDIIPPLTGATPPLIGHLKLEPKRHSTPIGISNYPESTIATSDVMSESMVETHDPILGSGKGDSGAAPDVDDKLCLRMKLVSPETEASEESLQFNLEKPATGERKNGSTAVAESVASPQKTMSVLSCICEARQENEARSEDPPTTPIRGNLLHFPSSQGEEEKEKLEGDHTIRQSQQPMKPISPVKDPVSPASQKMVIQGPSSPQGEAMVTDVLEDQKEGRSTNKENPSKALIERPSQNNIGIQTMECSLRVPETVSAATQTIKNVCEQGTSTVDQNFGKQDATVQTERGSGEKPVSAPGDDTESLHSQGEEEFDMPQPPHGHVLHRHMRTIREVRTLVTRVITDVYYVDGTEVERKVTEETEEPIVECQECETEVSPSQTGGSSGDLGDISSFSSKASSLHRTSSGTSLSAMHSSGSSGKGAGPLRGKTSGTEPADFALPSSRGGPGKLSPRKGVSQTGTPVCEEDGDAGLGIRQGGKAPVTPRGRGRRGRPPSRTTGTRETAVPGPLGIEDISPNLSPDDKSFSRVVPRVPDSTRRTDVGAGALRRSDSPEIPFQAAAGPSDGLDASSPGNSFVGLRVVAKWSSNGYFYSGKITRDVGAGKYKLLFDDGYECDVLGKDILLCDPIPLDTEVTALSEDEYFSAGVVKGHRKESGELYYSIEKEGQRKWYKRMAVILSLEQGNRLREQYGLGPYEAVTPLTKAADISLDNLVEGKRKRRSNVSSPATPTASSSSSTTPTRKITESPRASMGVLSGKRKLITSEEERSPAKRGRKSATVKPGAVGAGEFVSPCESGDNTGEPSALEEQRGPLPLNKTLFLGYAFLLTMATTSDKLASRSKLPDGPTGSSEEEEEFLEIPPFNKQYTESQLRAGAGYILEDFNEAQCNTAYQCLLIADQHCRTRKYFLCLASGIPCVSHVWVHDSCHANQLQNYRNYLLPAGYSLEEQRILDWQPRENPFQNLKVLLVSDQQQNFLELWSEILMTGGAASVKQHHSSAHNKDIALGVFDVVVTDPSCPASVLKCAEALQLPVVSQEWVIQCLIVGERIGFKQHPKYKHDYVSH

Take `Cc1cc(N(C)C)nc2ccc(NC(=O)/C=C/c3ccco3)cc12`: the IC50 at TP53-binding protein 1 [1] was 4.2 µM. As to `O=C(/C=C/c1ccco1)Nc1cccc2ncccc12`, on TP53-binding protein 1 [1], the IC50 is greater than 50 µM. `Cc1cc(N2CCCCC2)nc2ccc(NC(=O)/C=C/c3ccco3)cc12`: the IC50 at TP53-binding protein 1 [1] worked out at 15.1 µM. In the case of `Cc1cc2cc(NC(=O)/C=C/c3ccco3)ccc2[nH]1`, the IC50 on TP53-binding protein 1 [1] worked out at 22.3 µM. For the molecule `CCN(CC)c1cc(C)c2cc(NC(=O)/C=C/c3ccco3)ccc2n1`, the IC50 at TP53-binding protein 1 [1] is 1.69 µM. In addition, the Kd turned out to be 2.69 µM at TP53-binding protein 1 [2] and 2.7 µM on TP53-binding protein 1 [3]. Consider `CN(C)c1ccc2cc(NC(=O)/C=C/c3cccc4cccnc34)ccc2n1`, for which the IC50 at TP53-binding protein 1 [1] is greater than 50 µM. For the molecule `CCN(CC)c1cc(C)c2cc(N(C)C(=O)/C=C/c3ccco3)ccc2n1`, the half-inhibitory concentration (IC50) on TP53-binding protein 1 [1] worked out at 17.8 µM.

For `CCN(CC)c1cc(C)c2cc(NC(=O)/C=C/c3ccc4ccoc4c3)ccc2n1`, the IC50 on TP53-binding protein 1 [1] is greater than 50 µM.

With `CCN(CC)c1cc(C)c2cc(NC(=O)/C=C/c3ccccn3)ccc2n1`, the IC50 on TP53-binding protein 1 [1] is 31.3 µM.
